In assay [1] the test system is HL-60. The assay can be described thus: Growth inhibition of human HL60 cells incubated for 48 hrs by SRB assay. The assay is classed as functional. Conditions: HL-60, 48 h. On the technique in general: The SRB assay estimates cell density from bound dye.
For assay [2], the system named is K562. The assay can be described thus: Growth inhibition of human K562 cells incubated for 48 hrs by SRB assay. It counts as functional. Conditions: K562, 48 h.
The test system of assay [3] is HCC 2998. The assay can be described thus: Growth inhibition of human HCC2998 cells incubated for 48 hrs by SRB assay. The assay is classed as functional. The following applies: HCC 2998, 48 h.
The test system of assay [4] is SF-539. The assay can be described thus: Growth inhibition of human SF539 cells incubated for 48 hrs by SRB assay. The assay is classed as functional. Conditions: SF-539, 48 h.
Assay [5] deals with SKM-1. As to the kind of experiment: Cytotoxicity against human SKM1 cells incubated for 48 hrs by SRB assay. It counts as functional, cell-based. The following applies: SKM-1, 48 h.
The test system of assay [6] is U-937. The assay can be described thus: Cytotoxicity against human U937 cells incubated for 48 hrs by SRB assay. The following applies: U-937, 48 h. The assay is classed as functional, cell-based.

In brackets after ≈: the same amount, converted by molar mass.

As for `C=C1C[C@@H]2C/C=C/C(=O)C/C(C)=C\C=C\C(=O)O[C@H](C=O)C/C(C)=C/[C@H](C1)O2`, the GI50 in assay [1], in assay [2], in assay [3] and in assay [4] was 0.025 to 0.099 µg/mL (≈ 0.065 to 0.257 µM) each time.
Turning to `C=C1C[C@@H]2C/C=C/C(=O)C/C(C)=C\C=C\C(=O)O[C@H]([C@H](O)NC(=O)/C=C\C=C\C)C/C(C)=C/[C@H](C1)O2` [ZAMPANOLIDE], the concentration for half-maximal inhibition (IC50) in assay [5] and in assay [6] was 1.1 to 2.9 nM each time.

The record behind these values is ChEMBL document CHEMBL4251592, “Recent advances in microtubule-stabilizing agents” (Eur J Med Chem, 2018).
